Assay results published in ChEMBL document CHEMBL5465560, “Selectivity Literature for EUbOPEN Chemogenomic Library” (2024).

Key:
[1] = molecular target: T1, Serine/threonine-protein kinase MAK (Homo sapiens) (UniProt P20794); assay: Selectivity interaction (KinomeScan (DiscoverX)) EUB0000655a MAK; settings: at 10 µM
T1 sequence (whole entry): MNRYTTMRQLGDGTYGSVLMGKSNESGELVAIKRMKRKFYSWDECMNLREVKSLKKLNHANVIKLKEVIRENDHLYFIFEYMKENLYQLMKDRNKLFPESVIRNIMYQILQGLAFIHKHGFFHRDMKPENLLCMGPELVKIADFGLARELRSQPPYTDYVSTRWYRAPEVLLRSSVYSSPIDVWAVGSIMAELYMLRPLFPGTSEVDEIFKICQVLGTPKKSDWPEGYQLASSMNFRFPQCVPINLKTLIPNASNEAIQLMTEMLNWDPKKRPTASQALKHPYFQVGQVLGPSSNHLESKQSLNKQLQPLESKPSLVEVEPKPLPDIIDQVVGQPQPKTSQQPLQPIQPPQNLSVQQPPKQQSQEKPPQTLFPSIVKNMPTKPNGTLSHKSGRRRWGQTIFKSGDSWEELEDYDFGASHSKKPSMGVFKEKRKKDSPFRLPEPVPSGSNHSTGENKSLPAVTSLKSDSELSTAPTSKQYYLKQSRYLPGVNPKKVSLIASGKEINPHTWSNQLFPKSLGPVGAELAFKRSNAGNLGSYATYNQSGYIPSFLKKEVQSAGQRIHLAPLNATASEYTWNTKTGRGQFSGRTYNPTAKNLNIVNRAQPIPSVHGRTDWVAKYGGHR

[2] = molecular target: T2, Cyclin-dependent kinase 11A (Homo sapiens) (UniProt Q9UQ88); assay: Selectivity interaction (LanthaScreen Eu Kinase Binding Assay) EUB0001632a CDK11A; settings: at 10 µM
T2 sequence (whole entry): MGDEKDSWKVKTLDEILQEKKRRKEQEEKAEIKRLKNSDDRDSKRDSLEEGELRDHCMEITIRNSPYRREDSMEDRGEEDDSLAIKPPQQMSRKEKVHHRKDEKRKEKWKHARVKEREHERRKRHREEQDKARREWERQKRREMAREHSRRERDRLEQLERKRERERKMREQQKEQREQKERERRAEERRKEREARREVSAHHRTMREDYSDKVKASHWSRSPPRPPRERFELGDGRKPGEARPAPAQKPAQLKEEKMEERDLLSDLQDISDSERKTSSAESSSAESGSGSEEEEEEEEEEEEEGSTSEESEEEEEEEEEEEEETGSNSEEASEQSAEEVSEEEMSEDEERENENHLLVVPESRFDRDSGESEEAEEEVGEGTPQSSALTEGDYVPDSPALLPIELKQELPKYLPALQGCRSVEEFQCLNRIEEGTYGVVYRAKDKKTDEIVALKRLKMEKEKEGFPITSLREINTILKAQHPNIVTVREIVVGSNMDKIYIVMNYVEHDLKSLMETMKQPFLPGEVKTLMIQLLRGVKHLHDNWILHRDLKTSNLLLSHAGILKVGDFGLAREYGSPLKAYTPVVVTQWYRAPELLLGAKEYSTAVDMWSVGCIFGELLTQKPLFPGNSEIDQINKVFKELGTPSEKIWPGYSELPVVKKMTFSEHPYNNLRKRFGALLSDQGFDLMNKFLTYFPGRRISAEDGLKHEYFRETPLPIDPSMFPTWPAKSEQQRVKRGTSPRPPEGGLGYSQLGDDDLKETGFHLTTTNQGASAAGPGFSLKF

[3] = molecular target: T3, Phosphatidylinositol 4,5-bisphosphate 3-kinase catalytic subunit delta isoform (Homo sapiens) (UniProt O00329); assay: Selectivity interaction (ActivX KiNativ screen (kinase selectivity in THP-1 cell lysates)) EUB0000639a PIK3CD; format: subcellular; settings: lysate, at 5 µM
T3 sequence (whole entry): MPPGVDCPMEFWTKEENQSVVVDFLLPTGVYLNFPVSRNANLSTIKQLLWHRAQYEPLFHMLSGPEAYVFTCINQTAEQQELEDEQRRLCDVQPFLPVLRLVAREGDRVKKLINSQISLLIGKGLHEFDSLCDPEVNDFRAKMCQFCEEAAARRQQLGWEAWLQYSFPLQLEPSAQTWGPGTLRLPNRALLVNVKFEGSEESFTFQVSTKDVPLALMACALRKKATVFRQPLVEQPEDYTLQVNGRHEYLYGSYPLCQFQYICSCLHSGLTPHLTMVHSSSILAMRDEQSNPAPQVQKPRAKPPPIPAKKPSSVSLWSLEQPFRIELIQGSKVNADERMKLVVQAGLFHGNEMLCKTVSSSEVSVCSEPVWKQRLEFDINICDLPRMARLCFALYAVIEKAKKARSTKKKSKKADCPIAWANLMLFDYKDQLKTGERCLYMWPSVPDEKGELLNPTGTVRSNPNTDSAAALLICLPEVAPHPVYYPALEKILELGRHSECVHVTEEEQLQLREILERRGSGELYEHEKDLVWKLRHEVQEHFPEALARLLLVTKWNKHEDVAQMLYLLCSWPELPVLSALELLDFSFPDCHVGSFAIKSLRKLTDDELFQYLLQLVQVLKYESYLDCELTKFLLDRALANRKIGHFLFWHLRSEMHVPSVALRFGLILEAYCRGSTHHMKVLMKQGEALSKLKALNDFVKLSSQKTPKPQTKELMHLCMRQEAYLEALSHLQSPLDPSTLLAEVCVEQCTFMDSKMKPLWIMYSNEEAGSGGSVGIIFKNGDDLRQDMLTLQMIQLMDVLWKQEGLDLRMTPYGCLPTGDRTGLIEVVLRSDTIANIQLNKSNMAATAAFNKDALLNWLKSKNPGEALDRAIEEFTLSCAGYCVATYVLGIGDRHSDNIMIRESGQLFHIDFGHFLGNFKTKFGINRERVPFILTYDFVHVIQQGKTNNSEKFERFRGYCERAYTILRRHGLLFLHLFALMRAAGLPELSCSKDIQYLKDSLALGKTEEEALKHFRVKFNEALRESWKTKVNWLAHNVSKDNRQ

[4] = molecular target: T1, Serine/threonine-protein kinase MAK (Homo sapiens); assay: Selectivity interaction (KinomeScan (DiscoverX)) EUB0000695a MAK; settings: at 100 nM
[5] = molecular target: Macrophage colony-stimulating factor 1 receptor (Homo sapiens) (UniProt P07333); assay: Selectivity interaction (Ambit KINOMEscan and KiNATiv profiling in Jurkat cells) EUB0000090b CSF1R; format: cell-based; settings: at 1 µM
Chain of Macrophage colony-stimulating factor 1 receptor (Homo sapiens) (P07333 whole entry): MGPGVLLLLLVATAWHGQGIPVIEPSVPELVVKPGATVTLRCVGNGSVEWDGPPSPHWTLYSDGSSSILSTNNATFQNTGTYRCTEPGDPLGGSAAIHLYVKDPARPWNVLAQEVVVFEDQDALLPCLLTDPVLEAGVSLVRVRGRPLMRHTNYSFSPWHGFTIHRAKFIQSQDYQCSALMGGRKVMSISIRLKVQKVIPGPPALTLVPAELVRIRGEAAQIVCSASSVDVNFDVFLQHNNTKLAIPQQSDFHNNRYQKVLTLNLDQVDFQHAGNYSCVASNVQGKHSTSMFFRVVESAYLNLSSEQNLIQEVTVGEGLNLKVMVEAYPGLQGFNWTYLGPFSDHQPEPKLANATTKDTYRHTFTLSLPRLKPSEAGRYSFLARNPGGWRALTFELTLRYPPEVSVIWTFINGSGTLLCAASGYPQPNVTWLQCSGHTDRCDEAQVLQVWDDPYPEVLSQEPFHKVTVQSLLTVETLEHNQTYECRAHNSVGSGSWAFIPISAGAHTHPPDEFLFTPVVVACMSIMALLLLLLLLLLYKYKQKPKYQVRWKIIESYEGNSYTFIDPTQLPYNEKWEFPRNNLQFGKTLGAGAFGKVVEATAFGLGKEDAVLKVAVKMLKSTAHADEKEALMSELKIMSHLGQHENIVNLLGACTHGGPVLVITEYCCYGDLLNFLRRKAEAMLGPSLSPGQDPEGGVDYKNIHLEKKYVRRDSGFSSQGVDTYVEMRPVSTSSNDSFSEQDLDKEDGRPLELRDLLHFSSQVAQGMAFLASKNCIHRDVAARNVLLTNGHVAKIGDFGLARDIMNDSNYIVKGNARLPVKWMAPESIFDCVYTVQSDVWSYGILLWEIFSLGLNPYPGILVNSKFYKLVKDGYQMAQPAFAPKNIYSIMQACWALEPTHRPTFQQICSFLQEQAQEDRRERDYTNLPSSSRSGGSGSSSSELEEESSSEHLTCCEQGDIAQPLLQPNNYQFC

CN(C)CCOc1ccc(-c2nc(-c3ccncc3)c(-c3ccc4c(c3)CC/C4=N\O)[nH]2)cc1
% of control [1]: 100%

Cn1cc(-n2cnc3c(NCc4nc5cc(Cl)c(Cl)cc5[nH]4)nc(N4CCOCC4)nc32)cn1
% of inhibition [2]: -1.94%

CC[C@@H]1[C@H](F)C(=O)N[C@@H]1COc1nccc2cc(C(N)=O)c(OC)cc12 [ZIMLOVISERTIB]
% of inhibition [3]: 18.5%

Cc1cc(F)c(C(=O)Nc2cccc(-c3nncn3C(C)C)n2)cc1-n1cnc(C2CC2)c1
% of control [4]: 100%

CN(C)C/C=C/C(=O)Nc1ccc(C(=O)N2CCCC(Nc3ncc(Cl)c(-c4c[nH]c5ccccc45)n3)C2)cc1 (stereo not given)
% of control [5]: 86%
